Values of other authors in patent US20190388350A1, “FORMULATION” (priority 2018, published 2019).
Counter-ions that a name gives are not always drawn.

Question: For `CCN(C)C(=O)Oc1cccc([C@H](C)N(C)C)c1` [rivastigmine tartrate], which pKa is on record?
Answer: 8.9
